# From patent US4588726A, “1-cyclopropyl-6-fluoro-1 ,4-dihydro-4-oxo-7-(3-oxo-1-piperazinyl)-3-quinolinecarboxylic acid antibacterial agents” (Bayer Aktiengesellschaft, priority 1984, dated 1986)
# What was measured:
# [1] = test system: Staph. 1756; experiment: MIC of the compound of Example 1 compared with norfloxacin, Staph. 1756; format: cell-based; conditions: Staphylococcus
# From the text: (§1) Tables 1 and 2 below show examples of the MIC values of the compound of Example 1 compared with norfloxacin.
# [2] = test system: Staph. 25151; experiment: Microtitre assay/urine, MIC, Staph. 25151; format: cell-based; conditions: Staphylococcus
# From the text: as §1
# (§2) Microtitre assay/urine (80% pooled human urine,
# (§3) 20% isosensitest medium)
# [3] = test system: Staph.aur. FK 422; experiment: MIC of the compound of Example 1 compared with norfloxacin, Staph.aur. FK 422; format: cell-based; conditions: Staphylococcus aureus
# From the text: as §1
# [4] = test system: Staph. 133; experiment: MIC of the compound of Example 1 compared with norfloxacin, Staph. 133; format: cell-based; conditions: Staphylococcus
# From the text: as §1
# [5] = test system: E. coli C14; experiment: Microtitre assay/urine, MIC, E. coli C14; format: cell-based; conditions: Escherichia coli
# From the text: as §1, §2, §3
# [6] = test system: Gram-positive and Gram-negative organisms; conditions: J. Med. Chem. 23, 1358 (1980); cited from earlier work
# [7] = pH 7.1, Staph. 25151, head prints only pH 7.1
# [8] = pH 7.1, Staph. 25151, urine pH 7.1, 80% pooled human urine, 20% isosensitest medium
# [9] = C14, pH 7.1, E. coli C14, head prints only pH 7.1
# [10] = C14, pH 7.1, E. coli C14, urine pH 7.1, 80% pooled human urine, 20% isosensitest medium
SMILES,MIC [1] [µg/mL],"MIC [2, 7] [µg/mL]","MIC [2, 8] [µg/mL]",MIC [3] [µg/mL],MIC [4] [µg/mL],"MIC [5, 9] [µg/mL]","MIC [5, 10] [µg/mL]",antibacterial properties [6]
"O=C1CN(c2cc3c(cc2F)c(=O)c(C(=O)O)cn3C2CC2)CCN1 [Example 1, 1-cyclopropyl-6-fluoro-1,4-dihydro-4-oxo-7-(3-oxo-1-piperazinyl)-3-quinolinecarboxylic acid]",0.25,0.5,0.25,0.5,0.5,0.25,0.25,–
"CCn1cc(C(=O)O)c(=O)c2cc(F)c(N3CCNCC3)cc21 [Norfloxacin, 1-ethyl-6-fluoro-1,4-dihydro-4-oxo-7-(1-piperazinyl)-3-quinolinecarboxylicacid]",2,4,4,2,1,0.5,4,has antibacterial properties
